Measurements published in US11925629B2, “Heterocyclic inhibitors of ERK1 and ERK2 and their use in the treatment of cancer” (Asana Biosciences, LLC, priority 2015, dated 2024).
Where two headings read alike, the source gives them in different places.

How the values were obtained:
[1] = tested on: phospho-RSK (the downstream target of ERK1/2); experiment: Pharmacodynamic assay, phospho-RSK in A375 tumor samples; assay type: in vivo, mice; settings: Mus musculus, A-375; A375 tumor samples harvested at 1 h after dosing at 50 mg/kg PO, compared to vehicle control
Description: (§1) Foxn1 nu/nu strain of female mice (obtained from Charles River Laboratories, USA), 8-10 weeks of age, body weight range 23-25 g, were used for the tumor xenograft efficacy studies. Human cancer cell lines (such as melanoma A375, colorectal HT29, pancreatic BxPC3, colorectal HCT116, and lung A549) were first grown in vitro, and then about five million (5×10^6) of these cells in 100 μL of serum free medium were mixed with an equal amount of matrigel, and the entire mixture was injected subcutaneously at the right flank region of mice. The tumors were measured with Vernier calipers periodically after the first week of injection. When the tumor volume reached 120-150 mm^3 (about 3-4 weeks after injection) the animals were randomized into different groups so that their tumor volume was approximately the same in all groups.
For PO dosing, the compounds were prepared in a formulation containing 0.5% Methyl cellulose and 0.01% Tween 80. For IV, SC, or IP dosing, the compounds were prepared in 6% solutol-ethanol (1:1), 6% DMSO and 88% saline. Animals were dosed with compounds prepared in specific formulations via PO, IP or SC route either QD or BID at the required doses. Tumors size and body weights were measured twice or thrice in a week. Tumors were harvested at the end of the study after euthanizing the animals according to approved protocols. […]

[2] = tested on: phosphorylation of RSK1(S380) (the downstream target of ERK1/2); experiment: Phospho-RSK1(S380) ELISA assay in HT-29 cells; assay type: cell-based, human; settings: Homo sapiens, HT-29, HT29 cells, read-out: Mechanistic Cell Assay RSK1 Phos HT29 IC50
How it was run: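 IC50 values derive from a variable-slope sigmoidal fit of sandwich-ELISA signal (450 nm) for RSK1 Ser380 phosphorylation. The cells were B-RafV600E HT-29 colorectal line, exposed to serially diluted compound for 2 h after overnight seeding, then lysed at 4° C.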

[3] = tested on: HCT116 (colorectal carcinoma, K Ras G13D) cells; experiment: Cell proliferation (Alamar Blue) assay, HCT116; assay type: cell-based, human; settings: Homo sapiens, HCT-116, HCT116 cells
How it was run: (§2)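 IC50 values derive from variable-slope sigmoidal fits of Alamar Blue fluorescence (540 nm excitation, 590 nm emission, 1-3 h dye incubation). Compound treatment ran 72 h at 37° C./5% CO2 over roughly 0.0005-10 uM in 3-fold steps, on cells plated at 5000/well and pre-incubated 16-24 h.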

[4] = tested on: HT-29 (colorectal carcinoma, B-RafV600E) cells; experiment: Cell proliferation (Alamar Blue) assay, HT-29; assay type: cell-based, human; settings: Homo sapiens, HT-29, HT29 cells
How it was run: as §2

[5] = tested on: human melanoma xenograft model (A375) harboring B-RAF V600E mutation; experiment: A375 human melanoma xenograft model, tumor growth inhibition; assay type: in vivo, mice; settings: 50 mg/kg BID orally for 19 days
Description: as §1, with “When the tumor volume reached 120-150 mm^3 (about 3-4 weeks after injection) the animals were randomized into different groups so that their tumor volume was approximately the same in all groups.” left out
For PO dosing, the compounds were prepared in a formulation containing 0.5% Methyl cellulose and 0.01% Tween 80. […] Tumors size and body weights were measured twice or thrice in a week. […]
Changes in tumor volume (Δ volumes) for each treated (T) and control (C) group were calculated by subtracting the mean tumor volume on the first day of treatment (starting day) from the mean tumor volume on the specified observation day. […] Percentage tumor growth inhibition was calculated as [100−% T/C]. Percentage body weight change was calculated as [(Body weight on specified observation day−Body weight on starting day)/Body weight on starting day]×100. […]

ERK2 = molecular target: T1, ERK2 (Homo sapiens, UniProt P28482); experiment: ERK2 HTRF (biochemical) assay; settings: HTRF
T1 construct: purchased Jubilant Biosys
Description: (§3) ERK1 and ERK2 HTRF (Biochemical) Assays
These assays employed a homogeneous time resolved fluorescence (HTRF) technique. The compounds were serially diluted by half-log with concentrations ranging from 0.0005 to 10 uM in the assay buffer (50 mM Tris pH=7.5, 1 mM EGTA, 2 mM DTT, 10 mM MgCl2, 0.100 Tween-20) and 20 uL of substrate-ATP mix [1 uM Biotin-LC-Myelin Basic Protein (MBP) derivatized Peptide (Anaspec)-24 uM ATP (Sigma)] was added to each well of the assay plate. Then 10 uL of enzyme mix [25 nM ERK1 or ERK2 (Jubilant Biosys) in assay buffer] was added to each well. The plate was incubated at room temperature for 60 min with shaking. The HTRF mix [625 nM LANCER Ultra Europium-anti-phospho-MBP (Perkin Elmer) and 2 nM Phycolink® Streptavidin-Allophycocyanin (SA-APC) (Prozyme) in HTRF buffer (50 mM Tris-HCl pH=7.5, 100 mM NaCl, 0.1% BSA, 0.05% Tween20, 0.5 mM EDTA)] was prepared and 75 uL of this mix was added to the HTRF plate. After incubation for 60 min at room temperature, 10 uL of the reaction mixture was transferred to the HTRF assay plate and incubated for 45 min at room temperature with shaking. Plate was read using Pherastar in HTRF mode (excitation 337 nm, emission 665 & 620 nm). The IC50 values (half maximal inhibitory concentration values) were subsequently determined using a sigmoidal dose-response curve (variable slope) in GraphPad Prism® 5 software.

ERK1 = molecular target: T2, ERK1 (Homo sapiens, UniProt P27361); experiment: ERK1 HTRF (biochemical) assay; settings: HTRF
T2 construct: purchased Jubilant Biosys
Description: as §3
These assays employed a homogeneous time resolved fluorescence (HTRF) technique. […] The plate was incubated at room temperature for 60 min with shaking. […] The IC50 values (half maximal inhibitory concentration values) were subsequently determined using a sigmoidal dose-response curve (variable slope) in GraphPad Prism® 5 software.

T1 sequence (P28482 whole entry): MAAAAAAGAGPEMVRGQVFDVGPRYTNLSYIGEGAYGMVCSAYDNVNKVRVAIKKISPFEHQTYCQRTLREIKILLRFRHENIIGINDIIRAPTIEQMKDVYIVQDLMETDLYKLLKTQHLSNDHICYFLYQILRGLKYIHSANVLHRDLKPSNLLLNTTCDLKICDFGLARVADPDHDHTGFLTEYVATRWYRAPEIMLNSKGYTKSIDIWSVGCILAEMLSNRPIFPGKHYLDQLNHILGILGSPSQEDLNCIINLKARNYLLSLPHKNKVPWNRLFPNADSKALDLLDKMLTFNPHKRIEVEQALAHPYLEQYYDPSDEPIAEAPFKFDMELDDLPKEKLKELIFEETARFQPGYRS
T2 sequence (P27361 whole entry): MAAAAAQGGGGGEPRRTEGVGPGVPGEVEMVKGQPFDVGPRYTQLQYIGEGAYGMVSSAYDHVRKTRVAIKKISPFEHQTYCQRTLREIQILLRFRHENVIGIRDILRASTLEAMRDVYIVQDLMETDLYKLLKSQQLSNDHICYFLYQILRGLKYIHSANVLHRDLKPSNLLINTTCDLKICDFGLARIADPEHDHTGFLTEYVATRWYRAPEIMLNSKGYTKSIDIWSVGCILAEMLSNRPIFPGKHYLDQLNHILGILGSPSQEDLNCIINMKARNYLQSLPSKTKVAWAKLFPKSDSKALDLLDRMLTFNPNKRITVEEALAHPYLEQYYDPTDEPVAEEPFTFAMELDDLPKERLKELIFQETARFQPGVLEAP

IC50 ([2]; phospho-RSK1(S380)) [nM] | IC50 [3] [nM] | IC50 [4] [nM] | IC50 (ERK2) [nM] | IC50 (ERK1) [nM] | IC50 [2] [nM] | SMILES | inhibition at 50 mg/kg [1] [%] | body weight loss [5]
 |  |  |  |  |  | Cc1cnc(NC2CCOCC2)nc1-n1cnc(C(=O)NC(CO)c2cccc(Cl)c2)c1 (stereo not shown) [Example 201] | ~66 | 
 |  |  |  |  |  | Cc1cnc(NC2CCOCC2)nc1-n1cnc(C(=O)N[C@H](CO)c2cccc(Cl)c2)c1 [Example 211] | ~84 | 
≤ 100 | ≤ 100 | ≤ 100 |  |  |  | Cc1cnc(N[C@H]2CCOC2)nc1-n1cnc(C(=O)N[C@H](CN)c2cccc(Cl)c2)c1 [Example 255, N-((S)-2-amino-1-(3-chlorophenyl)ethyl)-1-(5-methyl-2-(((S)-tetrahydrofuran-3-yl)amino)pyrimidin-4-yl)-1H-imidazole-4-carboxamide] |  | no significant body weight loss
 | > 2500 | > 2500 | ≤ 50 | < 50 | 500 to 2500 | Cc1cnc(N[C@H]2CCOC2)nc1-n1cnc(C(=O)NCc2ccc(Cl)c(F)c2)c1 [Example 324, (S)-N-(4-chloro-3-fluorobenzyl)-1-(5-methyl-2-((tetrahydrofuran-3-yl)amino)pyrimidin-4-yl)-1H-imidazole-4-carboxamide] |  | 
 | > 2500 | 500 to 2500 | ≤ 50 | < 50 | 100 to 250 | Cc1cnc(N[C@H]2CCOC2)nc1-n1cnc(C(=O)NCc2cccc(C(C)(C)C)c2)c1 [Example 327, (S)-1-(5-methyl-2-((tetrahydrofuran-3-yl)amino)pyrimidin-4-yl)-N-(3-tert-butylbenzyl)-1H-imidazole-4-carboxamide] |  | 
